The values below come from patent publication US20250011777A1, “DELIVERY OF ANITSENSE OLIGOMERS BY MIRROR IMAGE PEPTIDES” (SAREPTA THERAPEUTICS, INC., priority 2021, published 2025).

Some results are limits rather than exact numbers.

The conditions of data set [1]: after administration; cited from earlier work.
Data set [2] has as its system HeLa 654 cells (EGFP gene interrupted by a mutated intron of ß-globin, IVS2-654). Kind of data set: EGFP 654 assay (corrective splicing by PMO IVS2-654, flow cytometry). It counts as cell-based. The note with it: PMO-CPP conjugates, 22 h, read-out: EC50 in concentration-response EGFP assay. On the procedure: Purified constructs were then tested using an activity-based readout in which nuclear delivery results in fluorescence. Briefly, HeLa cells stably transfected with an Enhanced Green Fluorescent Protein (EGFP) gene interrupted by a mutated intron of ß-globin (IVS2-654) produce a non-fluorescent EGFP protein. Successful delivery of PMO IVS2-654 to the nucleus results in corrective splicing and EGFP synthesis.
The amount of PMO delivered to the nucleus is therefore correlated with EGFP fluorescence, quantified by flow cytometry. Activity is reported as mean fluorescence intensity (MFI) relative to PMO alone. This activity assay provides indirect information on how much active PMO is delivered to the nucleus. Relative efficiency of a PMO-CPP could be characterized by comparing activity to internal concentration, as discussed later (FIG. 2). […]
For individual peptide testing, PMO-peptides were dissolved in PBS without Ca2+ or Mg2+ at a concentration of 1 mM (determined by UV) before being diluted in MEM. […] Gates were applied to the data to ensure that cells that were positive for propidium iodide or had forward/side scatter readings that were sufficiently different from the main cell population were excluded. […]
Analysis was conducted using Graphpad Prism 7 and FlowJo. For each sample, the mean fluorescence intensity (MFI) and the number of gated cells was measured. […]

For the substance Eteplirsen, the “time within which the majority of the drug is cleared renally” value in data set [1] is given as not above 24 h.

As to RXRRBRRXRRBR [BPEP], in data set [2], the EC50 was approximately 3000 nM.
